How the values were obtained:
TGFβ = assay: Luciferase reporter gene assay for TGFβ activity (HEK293T SBE-Luc SMAD2/3 reporter, TGFβ agonist); assay type: cell-based; settings: Homo sapiens, HEK-293T, TGFβ 5 ng/mL
Experimental: (§1) All cell lines were cultured in DMEM, supplemented with […] and 1% Pen/Strep. All media reagents were obtained from Gibco. BMP6, BMP9, and TGFβ were obtained from R&D Systems. C2C12-BRE and HEK293T-SBE were kept in selection with 400 ug/mL G418 from Invivogen.
(§2) In this reporter gene cell based ALK2 and TGFβ assay, the C2C12 cell line was employed for the measurement of ALK2 activity, using a BRE-Luc SMAD1/5/8 reporter and BMP6 as the agonist. The HEK293T cell line was employed to measure TGFβ activity, using a SBE-Luc SMAD2/3 reporter and TGFβ as the agonist. Luciferase reporter assays were read using Promega Steady-Glo Luciferase Assay System.
(§3) Cells were plated in 96 well white clear bottom assay plates at 10 k cells/well for C2C12-BRE, 15 k cells/well for HEK293-SBE in DMEM containing 2% FBS 1% P/S. Cells were given a minimum of 4 hours in incubator at 37° C./5% CO2 to adhere prior to further treatment. Compounds were diluted in DMSO to a 10-point dilution curve and added to the plate to reach the following final concentrations: 10000, 3000, 1000, 300, 100, and 30 nM in the HEK293-SBE assay and 1000, 300, 100, 30, 10, 3, 1, 0.3 nM in the C2C12-BRE assay. Negative and positive control wells received 2 μL DMSO as vehicle treatment. Plates were returned to incubator for 45 minutes and then BMP6 and TGFB were added to a final concentration of 50 ng/mL and 5 ng/mL, respectively. Plates were returned to the incubator and left overnight. After a minimum of 18 hours post BMP6/TGFβ addition, the plates were read using Promega Steady-Glo Luciferase Assay System. A 1:1 mixture of prepared steady-glo and phenol free DMEM was prepared, and 50 μL/well was added to the assay plates whose media had been flicked off. Plates were given 10 minutes post steady-glo addition before luminescence was read on a Spectramax M5e microplate reader. Negative control wells were averaged and subtracted from all other wells on the plate. Inhibition was calculated as the percent of signal loss compared to the averaged positive control wells.

ALK2 = molecular target: T1, ALK2 (Mus musculus, UniProt P37172); assay: Luciferase reporter gene assay for ALK2 activity (C2C12 BRE-Luc SMAD1/5/8 reporter, BMP6 agonist); assay type: cell-based; settings: BMP6 50 ng/mL
T1 construct: endogenous in cells; host or cells: C2C12-BRE (BRE-Luc reporter line, G418 selection)
T1 sequence (P37172 21-509): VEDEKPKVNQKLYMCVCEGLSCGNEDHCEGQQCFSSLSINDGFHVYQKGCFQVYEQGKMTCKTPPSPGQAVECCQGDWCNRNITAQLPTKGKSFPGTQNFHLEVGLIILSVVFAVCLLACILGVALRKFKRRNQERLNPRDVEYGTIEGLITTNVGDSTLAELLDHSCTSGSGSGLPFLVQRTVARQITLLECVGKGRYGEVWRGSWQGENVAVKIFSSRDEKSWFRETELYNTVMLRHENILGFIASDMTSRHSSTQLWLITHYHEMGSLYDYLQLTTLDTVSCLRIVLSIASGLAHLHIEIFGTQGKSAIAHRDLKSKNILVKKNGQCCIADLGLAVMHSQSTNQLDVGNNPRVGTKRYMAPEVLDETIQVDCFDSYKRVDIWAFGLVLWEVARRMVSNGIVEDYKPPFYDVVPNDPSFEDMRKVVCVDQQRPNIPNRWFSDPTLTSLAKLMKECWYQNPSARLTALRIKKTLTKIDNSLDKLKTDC
Experimental: as §1, §2, §3

SMILES	IC50 (TGFβ) [µM]	IC50 (ALK2) [µM]
NC(=O)c1ccc(-c2cnn3cc(N4CCN(C5CCNCC5)CC4)cnc23)c2ccccc12 [Compound 3]	< 0.001	0.013
NC(=O)c1cccc2c(-c3cnn4cc(N5CCN(C6CCNCC6)CC5)cnc34)cccc12 [Compound 4]	> 3	> 3
CN1CCN(C2CCN(c3cnc4c(-c5ccc(C(N)=O)c6ccccc56)cnn4c3)CC2)CC1 [Compound 9]	0.023	0.036
CN1CCN(C2CCN(c3cnc4c(-c5cccc6c(C(N)=O)cccc56)cnn4c3)CC2)CC1 [Compound 10]	0.076	0.041
NC(=O)c1ccc(-c2cnn3cc(N4CCC(N5CCOCC5)CC4)cnc23)c2ccccc12 [Compound 12]	0.458	0.087
NC(=O)c1cccc2c(-c3cnn4cc(N5CCC(N6CCOCC6)CC5)cnc34)cccc12 [Compound 13]	0.261	0.056
CN1CCN(C2CCN(c3cnc4c(-c5cn[nH]c5)cnn4c3)CC2)CC1 [Compound 14]	> 3	0.186
COc1cc2c(-c3cnn4cc(N5CCC(N6CCOCC6)CC5)cnc34)ccnc2cc1F [Compound 16]	0.02	0.008
COc1cc2nccc(-c3cnn4cc(N5CCC(N6CCN(C)CC6)CC5)cnc34)c2cc1OC [Compound 17]	0.271	0.681
CN1CCN(C2CCN(c3cnc4c(-c5ccnc6cc7c(cc56)OCO7)cnn4c3)CC2)CC1 [Compound 18]	0.176	0.029
Cc1cc(-c2cnn3cc(N4CCN(CCN5CCOCC5)CC4)cnc23)c2ccccc2n1 [Compound 19]	0.064	0.113
COc1ccc2nccc(-c3cnn4cc(N5CCC(N6CCN(C)CC6)CC5)cnc34)c2c1 [Compound 20]	0.218	0.008
CCOc1ccc2nccc(-c3cnn4cc(N5CCC(N6CCN(C)CC6)CC5)cnc34)c2c1 [Compound 21]	1.28	0.027
Cc1cc(-c2cnn3cc(N4CCN(C5CCOCC5)CC4)cnc23)c2ccccc2n1 [Compound 22]	0.086	0.261
Cc1cc(-c2cnn3cc(N4CCN(C5CCNCC5)CC4)cnc23)c2ccccc2n1 [Compound 23]	0.088	0.145
CC(=O)N1CCC(N2CCN(c3cnc4c(-c5cc(C)nc6ccccc56)cnn4c3)CC2)CC1 [Compound 24]	0.056	0.223
CN1CCN(C2CCN(c3cnc4c(-c5cnn6ccccc56)cnn4c3)CC2)CC1 [Compound 26]	0.118	0.334
Cc1cc(-c2cnn3cc(N4CCN(c5ccncc5)CC4)cnc23)c2ccccc2n1 [Compound 27]	0.01	0.007
COc1cc2c(-c3cnn4cc(N5CCC(N6CCN(C)CC6)CC5)cnc34)ccnc2cc1Cl [Compound 28]	0.248	0.072
COc1cc2c(-c3cnn4cc(N5CCC(N6CCN(C)CC6)CC5)cnc34)ccnc2cc1C [Compound 29]	0.384	0.083
COc1ccc2nccc(-c3cnn4cc(N5CCC(N6CCOCC6)CC5)cnc34)c2c1 [Compound 30]	0.12	0.037
Cn1cc(-c2cnn3cc(N4CCC(N5CCOCC5)CC4)cnc23)c2ccccc2c1=O [Compound 32]	0.037	0.025
Cc1cc(-c2cnn3cc(N4CCN(C5(C)CCNCC5)CC4)cnc23)c2ccccc2n1 [Compound 33]	0.037	0.094
COc1cc2c(-c3cnn4cc(N5CCC(N6CCNCC6)CC5)cnc34)ccnc2cc1F [Compound 39, 7-fluoro-6-methoxy-4-[6-(4-piperazin-1-yl-1-piperidyl)pyrazolo[1,5-a]pyrimidin-3-yl]quinoline]	0.069	0.011

SMILES	IC50 (TGFβ) [µM]	IC50 (ALK2) [µM]
CCN1CCN(C2CCN(c3cnc4c(-c5ccnc6cc(F)c(OC)cc56)cnn4c3)CC2)CC1 [Compound 40]	0.327	0.114
COc1cc2c(-c3cnn4cc(N5CCC(N6CCN(C)C(C)C6)CC5)cnc34)ccnc2cc1F (stereo not shown) [Compound 41]	1.23	0.236
COc1cc2c(-c3cnn4cc(N5CCC(N6CCCN(C)CC6)CC5)cnc34)ccnc2cc1F [Compound 42]	0.059	0.009
COc1cc2c(-c3cnn4cc(N5CCC(N6CC[N+](C)([O-])CC6)CC5)cnc34)ccnc2cc1F [Compound 43]	1.92	0.631
COc1cc2c(-c3cnn4cc(N5CCC(N6CC[N+](C)(C)CC6)CC5)cnc34)ccnc2cc1F [Compound 44]	0.21	> 3
[2H]C([2H])([2H])N1CCN(C2CCN(c3cnc4c(-c5ccnc6cc(F)c(OC)cc56)cnn4c3)CC2)CC1 [Compound 45]	0.376	0.024
COc1cc2c(-c3cnn4cc(N5CCC(N6CCS(=O)(=O)CC6)CC5)cnc34)ccnc2cc1F [Compound 46]	0.454	0.108
COc1cc2c(-c3cnn4cc(N5CCC(N6CCN(C)CC6)C(F)C5)cnc34)ccnc2cc1F (stereo not shown) [Compound 47]	0.483	0.076
COc1cc2c(-c3cnn4cc(N5CCC(N6CCN(C)CC6)C5)cnc34)ccnc2cc1F (stereo not shown) [Compound 48]	0.914	0.05
COc1cc2c(-c3cnn4cc(N5CC(N6CCN(C)CC6)C5)cnc34)ccnc2cc1F [Compound 49]	0.631	0.011
COc1cc2c(-c3cnn4cc(N5CCC(N6CCC(C)(N)CC6)CC5)cnc34)ccnc2cc1F [Compound 51]	0.41	0.06
COc1cc2c(-c3cnn4cc(N5CCC(N6CC7CCC(C6)N7)CC5)cnc34)ccnc2cc1F [Compound 52]	0.358	0.029
COc1cc2c(-c3cnn4cc(N5CCC(N6CC7CCC(C6)N7C)CC5)cnc34)ccnc2cc1F [Compound 53]	0.198	0.009
COc1cc2c(-c3cnn4cc(N5CCC(N6C[C@H]7C[C@@H]6CN7)CC5)cnc34)ccnc2cc1F [Compound 54]	0.539	0.071
COc1cc2c(-c3cnn4cc(N5CCC(N6C[C@H]7C[C@@H]6CN7C)CC5)cnc34)ccnc2cc1F [Compound 55]	0.268	0.009
COc1cc2c(-c3cnn4cc(N5CCC(C)(N6CCN(C)CC6)CC5)cnc34)ccnc2cc1F [Compound 57]	> 1	0.207
COc1cc2c(-c3cnn4cc(N5CCC(N6CCN(C)CC6C)CC5)cnc34)ccnc2cc1F (stereo not shown) [Compound 58, 4-[6-[4-(2,4-dimethylpiperazin-1-yl)-1-piperidyl]pyrazolo[1,5-a]pyrimidin-3-yl]-7-fluoro-6-methoxy-quinoline]	0.97	0.377
COc1ccc2nccc(-c3cnn4cc(N5CCC(N6CCN(C)CC6)CC5)cnc34)c2n1 [Compound 60, 2-methoxy-8-[6-[4-(4-methylpiperazin-1-yl)-1-piperidyl]pyrazolo[1,5-a]pyrimidin-3-yl]-1,5-naphthyridine]	> 3	0.042
COc1cc2c(-c3cnn4cc(N5CCC(N6CCN(C)CC6)C(C)C5)cnc34)ccnc2cc1F (stereo not shown) [Compound 61]	> 3	> 1
Cc1cc(-c2cnn3cc(N4CCC(N5CCCN(C)CC5)CC4)cnc23)c2ccccc2n1 [Compound 62]	0.037	0.09
CN1CCN(C2CCN(c3cnc4c(-c5cccc(S(C)(=O)=O)c5)cnn4c3)CC2)CC1 [Compound 63]	6.83	0.977
CN1CCN(C2CCN(c3cnc4c(-c5cccc(P(C)(C)=O)c5)cnn4c3)CC2)CC1 [Compound 64]	> 3	0.028
CC(=O)N1CCC(N2CCN(c3cnc4c(-c5ccnc6ccccc56)cnn4c3)CC2)CC1 [Compound 81]	> 3	> 3

— patent US20230000869A1, “NOVEL ALK2 INHIBITORS AND METHODS FOR INHIBITING BMP SIGNALING” (The Brigham and Women's Hospital, Inc., priority 2017, published 2023)
